Converted amounts (≈) assume the structure as drawn. Read-outs that look alike come from different tables or passages of the source.
Assays:
[1] = system: colo320 colorectal cancer tumor model; conditions: 5 mg/kg once a week for four weeks
Description: Test objective: To investigate the antitumor efficacy of the above compounds in an animal tumor model of colo320 colorectal cancer.
(§1) Test drug: Polypeptide conjugate, Irinotecan, Belotecan and normal saline control group.
(§2) Test animals: 6-8 weeks old BALB/c mice, all female.
(§3) Passaging was performed every three days, and cells within 15 generations were used. 7.5×10^6 corresponding cells were injected into right chests of nude mice subcutaneously. After a volume of the tumors reached at least 120 mm^3, the mice were grouped randomly, with three mice in each group. Then treatment was started, and the day when the treatment was started was the first day. […] The control group was administered with normal saline. Administration was performed once a week for four weeks.

[2] = system: colo320 (colorectal cancer tissue); assay: cells; type: cell-based; conditions: CCK8, 48 h; Table 6
Description: (§4) Different types of cells were cultured with complete media (RPMI1640 (DMEM high sugar medium)+10% fetal bovine serum+1×P/S+sodium pyruvate 1 mM solution) in an incubator at 37° C. and 5% CO2 until the cells grew to a sufficient number, and the cells were collected, centrifuged at 1,000 g for 5 min, resuspended with an appropriate volume of a 10% RMPI1640 (DMEM high sugar medium) medium and adjusted to an appropriate density. In a 96-well culture plate, 100 μL of cell culture fluid containing different concentrations of drugs was added, control wells (0.1% DMSO) with only corresponding drug solvents without drugs, as well as blank wells (Blank) with only the medium but without cells were set, and three parallel wells were set in each group. After that, the cells after cell counting were inoculated onto 96-well culture plates, with 100 μL of cell suspension per well, and an inoculation concentration of the cells was 5,000 cells (100 μL)/well. The plates were then cultured in a CO2 (5%) incubator at 37° C. for 48 h. After 48 h, 10 μL of a cell proliferation staining reagent (CCK8) was added to each well, the plates were incubated in a cell incubator for around 2 h, and an absorbance at 450 nm was detected.
(§5) Cell survival rates and median inhibitory concentrations (IC50) of the drugs on the cells were calculated.

[3] = system: SKBR3 (breast cancer tissue); assay: cells; type: cell-based; conditions: CCK8, 48 h; for IC50 SKBR3 (breast cancer tissue): Table 1; for IC50 Breast cancer tissue (SKBR3): Table 6
Description: as §4, with “serum+1XP/S+sodium” for “serum+1×P/S+sodium”, “counted.” for “adjusted to an appropriate density.”
(§6) Cell survival rates and median inhibitory concentrations of the drugs on the cells were calculated.
as §4, §5

[4] = system: A2780 (ovarian cancer); assay: cells; type: cell-based; conditions: CCK8, 48 h; for IC50 A2780 (ovarian cancer): Table 1; for IC50 Ovarian cancer tissue (A2780): Table 6
Description: as §4, with “serum+1XP/S+sodium” for “serum+1×P/S+sodium”, “counted.” for “adjusted to an appropriate density.”
as §6, §4, §5

[5] = system: SJSA-1 (sarcoma tissue); assay: cells; type: cell-based; conditions: CCK8, 48 h; for IC50 SJSA-1 (sarcoma tissue): Table 1; for IC50 Sarcoma tissue (SJSA-1): Table 6
Description: as §4, with “serum+1XP/S+sodium” for “serum+1×P/S+sodium”, “counted.” for “adjusted to an appropriate density.”
as §6, §4, §5

[6] = system: A549 (non-small cell lung cancer); assay: cells; type: cell-based; conditions: CCK8, 48 h; for IC50 A549 (non-small cell lung cancer): Table 1; for IC50 Non-small cell lung cancer tissue (A549): Table 6
Description: as §4, with “serum+1XP/S+sodium” for “serum+1×P/S+sodium”, “counted.” for “adjusted to an appropriate density.”
as §6, §4, §5

[7] = MTD determination in mice (Examples 27, 36, 44); type: in vivo; conditions: mice, monitored for 14 d
Excerpt: Test animals: 6-8 weeks old mice, all female; mice were grouped randomly, with six mice in each group, administered with drugs at different concentration gradients separately and monitored for 14 d. A mouse was euthanized at a loss of 20% of its initial weight and deemed to have died of poisoning.

[8] = system: sarcoma SJSA-1 tumor model; conditions: 5 mg/kg once a week for three weeks
Description: Test objective: To investigate the antitumor efficacy of the above compounds in an animal tumor model of sarcoma SJSA-1.
as §1, §2
as §3, with “SJSA-1 cells were purchased from ATCC and cultured in a DMEM medium containing 10% fetal bovine serum at 37° C. in 5% CO2. Passaging” for “Passaging”, “2×10^7” for “7.5×10^6”, “100” for “120”, “three” for “four”
as §3, with “SJSA-1 cells were purchased from ATCC and cultured in a DMEM medium containing 10% fetal bovine serum at 37° C. in 5% CO2. Passaging” for “Passaging”, “2×10^7” for “7.5×10^6”, “100” for “120”, “three” for “four”

SMILES | Mouse weight (%) ([1]; Table 3) | colo320 (colorectal cancer cell) growth rate (%) ([1]; Table 3) | colo320 (colorectal cancer cell) mean tumor volume (mm^3) ([1]; Table 3) | Mouse weight (%) ([1]; Table 8) | colo320 (colorectal cancer cell) growth rate (%) ([1]; Table 8) | colo320 (colorectal cancer cell) mean tumor volume (mm^3) ([1]; Table 8) | IC50 Colorectal cancer tissue (colo320) [2] [µg/mL] | IC50 SKBR3 (breast cancer tissue) [3] [µg/mL] | IC50 Breast cancer tissue (SKBR3) [3] [µg/mL] | IC50 A2780 (ovarian cancer) [4] [µg/mL] | IC50 Ovarian cancer tissue (A2780) [4] [µg/mL] | IC50 SJSA-1 (sarcoma tissue) [5] [µg/mL] | IC50 Sarcoma tissue (SJSA-1) [5] [µg/mL] | IC50 A549 (non-small cell lung cancer) [6] [µg/mL] | IC50 Non-small cell lung cancer tissue (A549) [6] [µg/mL] | MTD ([7]; Table 4) [mg/kg] | MTD ([7]; Table 9) [mg/kg] | Mouse weight (%) ([8]; Table 2) | SJSA-1 (sarcoma tissue) mean tumor volume (mm^3) ([8]; Table 2) | SJSA-1 (sarcoma) Growth rate (%) ([8]; Table 2) | further results
CCNCCc1c2c(nc3ccccc13)-c1cc3c(c(=O)n1C2)COC(=O)[C@]3(O)CC [D2] | −7% | 946.13 | 1047.9 | −7% | 946.13 | 1047.9 | 0.051 (≈ 0.122 µM) | 0.036 (≈ 0.0858 µM) | 0.036 (≈ 0.0858 µM) | 0.018 (≈ 0.0429 µM) | 0.018 (≈ 0.0429 µM) | 0.023 (≈ 0.0548 µM) | 0.023 (≈ 0.0548 µM) | 0.030 (≈ 0.0715 µM) | 0.030 (≈ 0.0715 µM) | 25 | 25 | −8 | 1176.5 | 1018.01 | Mouse weight (%) ([8]; Table 7): −8%; SJSA-1 (sarcoma tissue) growth rate (%) ([8]; Table 7): 1018.01%; SJSA-1 (sarcoma tissue) mean tumor volume (mm^3) ([8]; Table 7): 1176.5 mm^3
CCCNCCc1c2c(nc3ccccc13)-c1cc3c(c(=O)n1C2)COC(=O)[C@]3(O)CC [D3] | +7% | 872.19 | 966 | +7% | 872.19 | 966 | 0.040 (≈ 0.0923 µM) | 0.049 (≈ 0.113 µM) | 0.049 (≈ 0.113 µM) | 0.021 (≈ 0.0484 µM) | 0.021 (≈ 0.0484 µM) | 0.029 (≈ 0.0669 µM) | 0.029 (≈ 0.0669 µM) | 0.026 (≈ 0.06 µM) | 0.026 (≈ 0.06 µM) | 25 | 25 | −5 | 1378.4 | 1192.71 | Mouse weight (%) ([8]; Table 7): −5%; SJSA-1 (sarcoma tissue) growth rate (%) ([8]; Table 7): 1192.71%; SJSA-1 (sarcoma tissue) mean tumor volume (mm^3) ([8]; Table 7): 1378.4 mm^3
CCCCNCCc1c2c(nc3ccccc13)-c1cc3c(c(=O)n1C2)COC(=O)[C@]3(O)CC [D4] | +5% | 945.77 | 1047.5 | +5% | 945.77 | 1047.5 | 0.078 (≈ 0.174 µM) | 0.076 (≈ 0.17 µM) | 0.076 (≈ 0.17 µM) | 0.029 (≈ 0.0648 µM) | 0.029 (≈ 0.0648 µM) | 0.054 (≈ 0.121 µM) | 0.054 (≈ 0.121 µM) | 0.043 (≈ 0.0961 µM) | 0.043 (≈ 0.0961 µM) | 30 | 30 | −7 | 1269.4 | 1098.39 | Mouse weight (%) ([8]; Table 7): −7%; SJSA-1 (sarcoma tissue) growth rate (%) ([8]; Table 7): 1098.39%; SJSA-1 (sarcoma tissue) mean tumor volume (mm^3) ([8]; Table 7): 1269.4 mm^3

Reference: patent US20250235545A1, “POLYPEPTIDE CONJUGATE AND USE THEREOF” (SHANGHAI CHIXI BIOMEDICAL TECHNOLOGY CO., LTD, priority 2024, published 2025)
